Test results taken from PMC8683663 (International Journal of Pharmaceutics: X, 2021).
Converted amounts (≈) assume the structure as drawn. Read-outs that look alike come from different tables or passages of the source.

Key:
[1] = 10 mg/kg encequidar, oral; ref Smolinski et al., 2021; cited from earlier work
Caco-2 cell monolayers [2] = experiment: Lucifer yellow permeability; assay type: in vitro ADME
[3] = Etoposide solubility in ethanol-water mixtures; assay type: physicochemical; conditions: 22 °C, thermodynamic from solid
[4] = mdr1a(−/−) (P-gp) knockout rats; ref Al-Ali et al., 2018a; cited from earlier work
[5] = ref Al-Ali et al., cited from earlier work; for oral bioavailability of etoposide: 2020
Caco-2 cell monolayers [6] = experiment: Bidirectional etoposide permeability across Caco-2 cell monolayers; assay type: in vitro ADME; conditions: in the presence of more than 79 nM zosuquidar; Caco-2
[7] = as above; assay type: in vitro ADME; conditions: human, Caco-2, pH 7.4
[8] = Pharmacokinetic dose escalation study in rats; assay type: in vivo, Sprague Dawley rats; conditions: for bioavailability: Etoposide Bioavailability; for Zosuquidar tmax: median [Q1;Q3]
[9] = for precipitation upon dilution in rSIF (visual): 1:1 in rSIF; for initial zosuquidar solubility: supernatant, 37 °C
[10] = Zosuquidar recovery in the compartments of the Caco-2 Transwell system; assay type: in vitro ADME; conditions: for zosuquidar left in solution / zosuquidar recovery: 120 min, mean ± SEM, n = 24; for zosuquidar left in solution: % of added
[11] = weak base; ref Drugbank, 2021; cited from earlier work
P-gp = experiment: In vitro-in vivo correlation of P-gp inhibition; conditions: 180 μM intestinal concentration in vivo vs. 5–10 nM in Caco-2
[12] = 20 mg/kg zosuquidar IV; ref Anderson et al., 2006; cited from earlier work
[13] = etoposide 5 mg/kg IV, by an oral dose of 20 mg/kg zosuquidar (group B vs A)
[14] = group B: zosuquidar 20 mg/kg oral + etoposide 5 mg/kg IV, mean ± SEM, n = 6
[15] = group F: zosuquidar 0.63 mg/kg oral + etoposide 20 mg/kg oral, mean ± SEM, n = 6
[16] = group G: zosuquidar 2.0 mg/kg oral + etoposide 20 mg/kg oral, mean ± SEM, n = 6
[17] = group H: zosuquidar 6.3 mg/kg oral + etoposide 20 mg/kg oral, mean ± SEM, n = 6
[18] = group I: zosuquidar 20 mg/kg oral + etoposide 20 mg/kg oral, mean ± SEM, n = 6
[19] = group J: zosuquidar 63 mg/kg oral + etoposide 20 mg/kg oral, mean ± SEM, n = 6

## COc1cc2c(cc1OC)CN(CCc1ccc(-n3nnc(-c4cc(OC)c(OC)cc4NC(=O)c4cc(=O)c5ccccc5o4)n3)cc1)CC2 [encequidar]
[1]
  encequidar Cmax: 0.0071 µg/mL
  encequidar bioavailability: 6.25%

## lucifer yellow
Caco-2 cell monolayers [2]; 100 μM lucifer yellow, Caco-2, not affected by zosuquidar
  lucifer yellow Papp: below 1.1 × 10^−6 cm/s
Caco-2 cell monolayers [2]; Caco-2 permeability experiments
  lucifer yellow recovery: 82–110%

## COc1cc([C@@H]2c3cc4c(cc3[C@@H](O[C@@H]3O[C@@H]5CO[C@@H](C)O[C@H]5[C@H](O)[C@H]3O)[C@H]3COC(=O)[C@H]23)OCO4)cc(OC)c1O [etoposide]
[3]; absolute ethanol, organic solvent or mixture
  solubility at 24 h: 0.891 ± 0.008 mg/mL (≈ 1510 µM)
[3]; ethanol-water mixture
  solubility at 24 h: 9.23 ± 0.42 mg/mL (≈ 15700 µM)
[3]; water
  solubility at 24 h: 0.0924 ± 0.0034 mg/mL (≈ 157 µM)
[4]
  oral etoposide bioavailability: 92%
[5]; 20 mg/kg etoposide oral + 20 mg/kg oral zosuquidar
  oral bioavailability of etoposide: 34.5%
[5]; wild-type rats, 2018a
  absolute etoposide bioavailability: 27 ± 5%
[5]; without zosuquidar
  oral bioavailability of etoposide: 4.0%
Caco-2 cell monolayers [6]
  decrease of etoposide B-A permeability: 5 fold
  increase of etoposide A-B permeability: 4 fold
[7]
  recovery at 120 min, 50 µM: 95 to 117%
[8]; [13]
  increase of etoposide AUC0-6h: 34%
  increase of etoposide t½: 37%
[8]; group D: etoposide 20 mg/kg oral, no zosuquidar, mean ± SEM, n = 6
  Etoposide Bioavailability: 5%
[8]; male, Sprague Dawley, rat, plasma, po, 20 mg/kg, Etoposide AUC0-6h, group I: etoposide 20 mg/kg oral + zosuquidar 20 mg/kg oral, mean ± SEM, n = 6
  AUC(0-t): 3.53 ± 0.46 µg·h/mL
[8]; male, Sprague Dawley, rat, plasma, po, 20 mg/kg, group D: etoposide 20 mg/kg oral, no zosuquidar, mean ± SEM, n = 6
  bioavailability: 5.5 ± 0.9%
[8]; male, Sprague Dawley, rat, plasma, po, 20 mg/kg, group I: etoposide 20 mg/kg oral + zosuquidar 20 mg/kg oral, mean ± SEM, n = 6
  bioavailability: 20.5 ± 2.7%
[9]; etoposide, any formulation
  precipitation upon dilution in rSIF (visual): did not precipitate

## O[C@@H](COc1cccc2ncccc12)CN1CCN([C@@H]2c3ccccc3[C@@H]3[C@H](c4ccccc42)C3(F)F)CC1 [zosuquidar]
[10]; apical and basolateral, after 30 min, data not shown
  reduction of free zosuquidar concentration in the receiver compartments: 60–72%
[10]; apical compartment
  zosuquidar left in solution: 1.55 ± 0.06%
[10]; basolateral compartment
  zosuquidar left in solution: 7.01 ± 0.37%
[10]; in the Caco-2 monolayer
  zosuquidar recovery: 58.7 ± 5.0%
[10]; in the cell culture plate
  zosuquidar recovery: 31.8 ± 11.3%
[11]
  predicted pKa: 7.6
P-gp
  in vitro-in vivo discrepancy of zosuquidar P-gp inhibition: at least four orders of magnitude
[8]; 2 h after a 5 mg/kg IV bolus
  zosuquidar plasma concentration: 0.13 µg/mL
[8]; [14]
  Zosuquidar AUC0-6h: 0.0942 ± 0.0124 µg·h/mL
  Zosuquidar Bioavailability: 2.81±0.37%
  Zosuquidar Cmax: 0.0237 ± 0.0036 µg/mL
  Zosuquidar t½ terminal: 2.88 ± 0.167 h
[8]; group B: zosuquidar 20 mg/kg oral + etoposide 5 mg/kg IV, n = 6
  Zosuquidar tmax: 120[60;135] min
[8]; group C: zosuquidar 5.0 mg/kg IV, mean ± SEM, n = 3
  Zosuquidar AUC0-6h: 0.83 ± 0.087 µg·h/mL
[8]; group C: zosuquidar 5.0 mg/kg IV, n = 3
  Zosuquidar CL: 6.12 ± 0.72 L/h/kg
[8]; group C: zosuquidar 5.0 mg/kg IV, two-compartment model, mean ± SEM, n = 3
  Zosuquidar t½ terminal: 2.33 ± 0.4 h
[8]; [15]
  Zosuquidar AUC0-6h: 0.00445 ± 0.00086 µg·h/mL
  Zosuquidar Bioavailability: 4.21±0.81%
  Zosuquidar Cmax: 0.00134 ± 0.00028 µg/mL
  Zosuquidar t½ terminal: 1.37 ± 0.0917 h
[8]; group F: zosuquidar 0.63 mg/kg oral + etoposide 20 mg/kg oral, n = 6
  Zosuquidar tmax: 120[101;120] min
[8]; [16]
  Zosuquidar AUC0-6h: 0.00867 ± 0.00077 µg·h/mL
  Zosuquidar Bioavailability: 2.58±0.23%
  Zosuquidar Cmax: 0.0021 ± 0.00027 µg/mL
  Zosuquidar t½ terminal: 3.62 ± 0.45 h
[8]; group G: zosuquidar 2.0 mg/kg oral + etoposide 20 mg/kg oral, n = 6
  Zosuquidar tmax: 120[45;135] min
[8]; [17]
  Zosuquidar AUC0-6h: 0.0436 ± 0.0054 µg·h/mL
  Zosuquidar Bioavailability: 4.12±0.51%
  Zosuquidar Cmax: 0.0109 ± 0.0012 µg/mL
  Zosuquidar t½ terminal: 2.68 ± 0.217 h
[8]; group H: zosuquidar 6.3 mg/kg oral + etoposide 20 mg/kg oral, n = 6
  Zosuquidar tmax: 90[45;120] min
[8]; [18]
  Zosuquidar AUC0-6h: 0.118 ± 0.021 µg·h/mL
  Zosuquidar Bioavailability: 3.52±0.62%
  Zosuquidar Cmax: 0.0313 ± 0.0032 µg/mL
  Zosuquidar t½ terminal: 3.23 ± 0.383 h
[8]; [19]
  Zosuquidar AUC0-6h: 0.436 ± 0.091 µg·h/mL
  Zosuquidar Bioavailability: 4.12±0.86%
  Zosuquidar Cmax: 0.105 ± 0.021 µg/mL
  Zosuquidar t½ terminal: 3.97 ± 0.233 h
[8]; range over the oral zosuquidar doses, Sprague Dawley rats
  Oral zosuquidar bioavailability: 2.6–4.2%
[12]
  tolerability of IV zosuquidar: no reported issues
[9]; 2.0 and 6.3 mg/mL zosuquidar (groups B, I, J)
  precipitation upon dilution in rSIF (visual): precipitation was observed
[9]; formulation B (2.0 mg/mL zosuquidar) diluted 1:1 in rSIF
  initial zosuquidar solubility: 0.45 mg/mL
[9]; formulation B diluted 1:1 in rSIF
  dose strength being in solution: 44%
[9]; formulation I (2.0 mg/mL zosuquidar) diluted 1:1 in rSIF
  initial zosuquidar solubility: 0.52 mg/mL
[9]; formulation I diluted 1:1 in rSIF
  dose strength being in solution: 52%
[9]; formulation J (6.3 mg/mL zosuquidar) diluted 1:1 in rSIF
  initial zosuquidar solubility: 0.47 mg/mL
[9]; formulation J diluted 1:1 in rSIF
  dose strength being in solution: 15%
[9]; lower zosuquidar concentrations
  precipitation upon dilution in rSIF (visual): remained clear
